In US5733913A, “6-Aryl pyrido[2,3-d] pyrimidines and naphthyridines for inhibiting protein tyrosine kinase mediated cellular proliferation” (priority 1995, dated 1998):
Read-outs that look alike come from different tables or passages of the source.

Legend:
Assay type in all cases: biochemical
[1] = target: T1, mouse PDGF-β receptor tyrosine kinase (Mus musculus, UniProt P05622); assay: PDGF receptor tyrosine kinase assay; details: for IC50: read-out: Inhibition of Protein Tyrosine Kinases, PDGF, IC50; for inhibition at 50 µM: read-out: Inhibition of Protein Tyrosine Kinases, PDGF, % Inhibition
T1 construct: a fragment of DNA that codes for the intracellular tyrosine kinase domain; made in house; host or cells: Sf9 insect cells (baculovirus), cell lysate
T1 sequence (P05622 599-961 limits assumed): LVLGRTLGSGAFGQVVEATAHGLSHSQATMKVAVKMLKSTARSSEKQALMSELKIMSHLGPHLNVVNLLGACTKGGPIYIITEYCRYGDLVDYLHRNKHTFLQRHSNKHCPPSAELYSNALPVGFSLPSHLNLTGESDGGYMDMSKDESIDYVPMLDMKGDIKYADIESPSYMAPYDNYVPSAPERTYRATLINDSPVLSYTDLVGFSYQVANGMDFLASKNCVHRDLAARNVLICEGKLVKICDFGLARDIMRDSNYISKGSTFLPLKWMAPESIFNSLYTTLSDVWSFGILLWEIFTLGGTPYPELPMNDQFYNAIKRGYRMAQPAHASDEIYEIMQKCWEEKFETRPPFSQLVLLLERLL
From the text: (§1) PDGF and FGF Receptor Tyrosine Kinase Assays
(§2) Full length cDNAs for the mouse PDGF-β and human FGF-1 (flg) receptor tyrosine kinases were obtained from J. Escobedo and prepared as described in J. Biol. Chem., 262:1482-1487 (1991), and PCR primers were designed to amplify a fragment of DNA that codes for the intracellular tyrosine kinase domain. The fragment was melded into a baculovirus vector, cotransfected with AcMNPV DNA, and the recombinant virus isolated. SF9 insect cells were infected with the virus to overexpress the protein, and the cell lysate was used for the assay. […] Briefly, to each well was added 82.5 μL of incubation buffer containing 25 mM Hepes (pH 7.0), 150 mM NaCl, 0.1% Triton X-100, 0.2 mM PMSF, 0.2 mM Na3 VO4, 10 mM MnCl2, and 750 μg/mL of Poly (4:1) glutamate-tyrosine followed by 2.5 μL of inhibitor and 5 μL of enzyme lysate (7.5 μg/μL FGF-TK or 6.0 μg/μL PDGF-TK) to initiate the reaction. Following a 10 minute incubation at 25° C., 10 μL of γ^32 P-ATP (0.4 μCi plus 50 μM ATP) was added to each well and samples were incubated for an additional 10 minutes at 25° C. The reaction was terminated by the addition of 100 μL of 30% trichloroacetic acid (TCA) containing 20 mM sodium pyrophosphate and precipitation of material onto glass fiber filter mats (Wallac). […] Nonspecific activity was defined as radioactivity retained on the filters following incubation of samples with buffer alone (no enzyme). Specific enzymatic activity was defined as total activity (enzyme plus buffer) minus nonspecific activity.

[2] = target: T2, human FGF-1 (flg) receptor tyrosine kinase (Homo sapiens, UniProt P11362); assay: FGF receptor tyrosine kinase assay; details: for IC50: read-out: Inhibition of Protein Tyrosine Kinases, FGF, IC50
T2 construct: a fragment of DNA that codes for the intracellular tyrosine kinase domain; made in house; host or cells: Sf9 insect cells (baculovirus), cell lysate
T2 sequence (P11362 478-767 limits assumed): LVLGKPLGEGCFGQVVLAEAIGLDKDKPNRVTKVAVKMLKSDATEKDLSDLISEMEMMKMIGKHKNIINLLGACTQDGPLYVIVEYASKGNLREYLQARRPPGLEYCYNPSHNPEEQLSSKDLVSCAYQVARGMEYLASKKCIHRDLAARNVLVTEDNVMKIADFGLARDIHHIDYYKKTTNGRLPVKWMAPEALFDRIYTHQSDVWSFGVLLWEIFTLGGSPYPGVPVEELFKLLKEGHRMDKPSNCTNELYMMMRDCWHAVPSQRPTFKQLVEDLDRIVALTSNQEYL
From the text: as §1, §2

C-src kinase = target: T3, C-src kinase (Homo sapiens, UniProt P12931); assay: C-src kinase assay; details: for IC50: read-out: Inhibition of Protein Tyrosine Kinases, C-src, IC50; for inhibition at 50 µM: read-out: Inhibition of Protein Tyrosine Kinases, C-src, % Inhibition
T3 construct: made in house; host or cells: baculovirus-infected insect cells
T3 sequence (P12931 whole entry): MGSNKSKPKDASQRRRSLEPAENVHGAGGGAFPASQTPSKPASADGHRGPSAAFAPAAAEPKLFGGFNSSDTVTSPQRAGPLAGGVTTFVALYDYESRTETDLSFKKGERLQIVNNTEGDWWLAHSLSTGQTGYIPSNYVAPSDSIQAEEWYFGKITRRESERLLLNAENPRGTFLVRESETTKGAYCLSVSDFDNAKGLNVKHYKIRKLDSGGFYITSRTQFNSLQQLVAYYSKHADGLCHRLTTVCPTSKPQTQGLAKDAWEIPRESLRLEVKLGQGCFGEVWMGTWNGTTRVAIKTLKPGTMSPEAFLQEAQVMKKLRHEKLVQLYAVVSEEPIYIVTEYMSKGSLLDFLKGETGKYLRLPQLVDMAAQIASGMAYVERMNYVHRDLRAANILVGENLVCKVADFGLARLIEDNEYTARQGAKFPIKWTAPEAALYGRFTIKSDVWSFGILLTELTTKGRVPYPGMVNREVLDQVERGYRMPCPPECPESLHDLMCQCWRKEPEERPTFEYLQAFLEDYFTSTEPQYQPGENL
Experimental: V-src and C-src Kinase Assays
V-src or C-src kinase is purified from baculovirus infected insect cell lysates using an antipeptide monoclonal antibody directed against the N-terminal 2-17 amino acids. The antibody, covalently linked to 0.65-μm latex beads, is added to a suspension of insect cell lysis buffer comprised of 150 mM NaCl, 50 mM Tris pH 7.5, 1 mM DTT, 1% NP-40, 2 mM EGTA, 1 mM sodium vanadate, 1 mM PMSF, 1 μg/mL each of leupeptin, pepstatin, and aprotinin. […] At the end of the lysate incubation, the beads are rinsed 3 times in lysis buffer, resuspended in lysis buffer containing 10% glycerol, and frozen. These latex beads are thawed, rinsed three times in assay buffer which is comprised of 40 mM tris pH 7.5, 5 mM MgCl2, and suspended in the same buffer. In a Millipore 96-well plate with a 0.65 μm polyvinylidine membrane bottom are added the reaction components: 10-μL v-src or c-src beads, 10 μL of 2.5 mg/mL poly GluTyr substrate, 5 μM ATP containing 0.2 μCi labeled ^32 P-ATP, 5μL DMSO containing inhibitors or as a solvent control, and buffer to make the final volume 125 μL. The reaction is started at room temperature by addition of the ATP and quenched 10 minutes later by the addition of 125 μL of 30% TCA, 0.1M sodium pyrophosphate for 5 minutes on ice. The plate is then filtered and the wells washed with two 250-μL aliquots of 15% TCA, 0.1M pyrophosphate. The filters are punched, counted in a liquid scintillation counter, and the data examined for inhibitory activity in comparison to a known inhibitor such as erbstatin. The method is described more fully in J. Med. Chem., 37:598-609 (1994).

Compound	IC50 [1] [nM]	IC50 [2] [nM]	IC50 (C-src kinase) [nM]	inhibition at 50 µM (C-src kinase; at 50 μM) [%]	inhibition at 50 µM [1] [%]	inhibition at 50 µM ([2]; at 50 μM, read-out: Inhibition of Protein Tyrosine Kinases, FGF, % Inhibition) [%]	inhibition at 50 µM (C-src kinase) [%]
COc1ccccc1NC(=O)Nc1nc2nc(NCCCN3CCN(C)CC3)ncc2cc1-c1c(Cl)cccc1Cl [Example 43, 1-{6-(2,6-Dichlorophenyl)-2-[3-(4-methyl-piperazin-1-yl)-propylamino]-pyrido[2,3-d]pyrimidin-7-yl}-3-(2-methoxy-phenyl)-urea]	405	91	11	–	–	–	–
CN1CCN(CCCNc2ncc3cc(-c4c(Cl)cccc4Cl)c(NC(=O)Nc4ccc(Br)cc4)nc3n2)CC1 [Example 44, 1-(4-Bromo-phenyl)-3-{6-(2,6-dichlorophenyl)-2-[3-(4-methyl-piperazin-1-yl)-propylamino]-pyrido[2,3-d]pyrimidin-7-yl}-urea]	1550	196	23	–	–	–	–
CN1CCN(CCCNc2ncc3cc(-c4c(Cl)cccc4Cl)c(NC(=O)Nc4ccc(Cl)cc4)nc3n2)CC1 [Example 45, 1-(4-Chloro-phenyl)-3-{6-(2,6-dichlorophenyl)-2-[3-(4-methyl-piperazin-1-yl)-propylamino]-pyrido[2,3-d]pyrimidin-7-yl}-urea]	1850	198	40	–	–	–	–
CCCCCCCCNC(=O)Nc1nc2nc(NCCCN3CCN(C)CC3)ncc2cc1-c1c(Cl)cccc1Cl [Example 47, 1-{6-(2,6-Dichlorophenyl)-2-[3-(4-methyl-piperazin-1-yl)-propylamino]-pyrido[2,3-d]pyrimidin-7-yl}-3-octyl-urea]	6170	637	161	–	–	–	–
CN1CCN(CCCNc2ncc3cc(-c4c(Cl)cccc4Cl)c(NC(=O)Nc4ccc(C(F)(F)F)cc4)nc3n2)CC1 [Example 48, 1-{6-(2,6-Dichlorophenyl)-2-[3-(4-methyl-piperazin-1-yl)-propylamino]-pyrido[2,3-d]pyrimidin-7-yl}-3-(4-trifluoromethyl-phenyl)-urea]	5320	613	260	–	–	–	–
CCNC(=O)Nc1nc2nc(NCCCN3CCN(C)CC3)ncc2cc1-c1c(Cl)cccc1Cl [Example 49, 1-{6-(2,6-Dichlorophenyl)-2-[3-(4-methyl-piperazin-1-yl)-propylamino]-pyrido[2,3-d]pyrimidin-7-yl}-3-ethyl-urea]	420	53.5	24	–	–	–	–
CCN(CC)CCCCNc1ncc2cc(-c3c(Cl)cccc3Cl)c(N)nc2n1 [Example 53, 6-(2,6-Dichlorophenyl)-N^2-(4-diethylamino-butyl)-pyrido[2,3-d]pyrimidine-2,7-diamine]	7080	693	153	–	–	–	–
Nc1nc2nc(NCCCN3CCOCC3)ncc2cc1-c1c(Cl)cccc1Cl [Example 58, 6-(2,6-Dichlorophenyl)-N^2-(3-morpholin-4-yl-propyl)-pyrido[2,3-d]pyrimidine-2,7-diamine]	19000	3460	–	110	–	–	–
CCN(CC)CCCNc1ncc2cc(-c3c(Br)cccc3Br)c(N)nc2n1 [Example 61, 6-(2,6-Dibromo-phenyl)-N^2-[3-diethylamino-propyl)-pyrido[2,3-d]pyrimidine-2,7-diamine]	45600	7850	764	–	–	–	–
Nc1ncc2cc(-c3c(F)cccc3F)c(N)nc2n1 [Example 63, 6-(2,6-Difluoro-phenyl)-pyrido[2,3-d]pyrimidine-2,7-diamine]	7010	543	1780	–	–	–	–
COc1cccc(OC)c1-c1cc2cnc(N)nc2nc1N [Example 64, 6-(2,6-Dimethoxy-phenyl)-pyrido[2,3-d]pyrimidine-2,7-diamine]	–	–	–	0	13	23.8	–
CCN(CC)CCNc1ncc2cc(-c3c(Cl)cccc3Cl)c(N)nc2n1 [Example 65, 6-(2,6-Dichlorophenyl)-N^2-(2-diethylamino-ethyl)-pyrido[2,3-d]pyrimidine-2,7-diamine]	–	17000	–	95	29.6	–	–
CCN(CCO)CCCNc1ncc2cc(-c3c(Cl)cccc3Cl)c(N)nc2n1 [Example 70, 2-({3-[7-Amino-6-(2,6-dichlorophenyl)-pyrido[2,3-d]pyrimidin-2-ylamino]-propyl}-ethyl-amino)-ethanol]	31400	2590	929	–	–	–	–
CCN(CC)CCCNc1ncc2cc(-c3c(Cl)cccc3Cl)c(N=CN(C)C)nc2n1 [Example 78, N'-[6-(2,6-Dichlorophenyl)-2-{3-(diethylamino)propyl-amino}pyrido[2,3-d]pyrimidin-7-yl]-N,N-dimethylformamidine]	32900	4010	3990	–	–	–	–
CC(C)(C)NC(=O)Nc1nc2nc(N)ncc2cc1-c1ccccc1 [Example 82, 1-(2-Amino-6-phenyl-pyrido[2,3-d]pyrimidin-7-yl)-3-tert-butyl-urea]	4670	3710	–	77.6	–	–	–
CC(C)(C)NC(=O)Nc1nc2nc(N)ncc2cc1-c1cccc(Cl)c1Cl [Example 84, 1-[2-Amino-6-(2,3-dichlorophenyl)-pyrido[2,3-d]pyrimidin-7-yl]-3-tert-butyl-urea]	2260	162	3820	–	–	–	–
Nc1ncc2cc(-c3c(Cl)ccc(Cl)c3Cl)c(N)nc2n1 [Example 85, 6-(2,3,6-Trichloro-phenyl)-pyrido[2,3-d]pyrimidine-2,7-diamine]	7630	129	4460	–	–	–	–
CC(C)(C)NC(=O)Nc1nc2nc(N)ncc2cc1-c1c(Cl)ccc(Cl)c1Cl [Example 86, 1-[2-Amino-6-(2,3,6-trichloro-phenyl)-pyrido[2,3-d]pyrimidin-7-yl]-3-tert-butyl-urea]	2960	114	1410	–	–	–	–
CC(C)(C)NC(=O)Nc1nc2nc(N)ncc2cc1-c1c(F)cccc1F [Example 87, 1-[2-Amino-6-(2,6-difluoro-phenyl)-pyrido[2,3-d]pyrimidin-7-yl]-3-tert-butyl-urea]	1880	118	–	–	–	–	92.7
Cc1cccc(-c2cc3cnc(N)nc3nc2NC(=O)NC(C)(C)C)c1C [Example 93, 1-[2-Amino-6-(2,3-dimethyl-phenyl)-pyrido[2,3-d]pyrimidin-7-yl]-3-tert-butyl-urea]	6050	343	4170	–	–	–	–
Cc1cc(C)cc(-c2cc3cnc(N)nc3nc2NC(=O)NC(C)(C)C)c1 [Example 95, 1-[2-Amino-6-(3,5-dimethyl-phenyl)-pyrido[2,3-d]pyrimidin-7-yl]-3-tert-butyl-urea]	41600	605	–	0	–	–	–
Cc1cc(C)c(-c2cc3cnc(N)nc3nc2NC(=O)NC(C)(C)C)c(C)c1 [Example 97, 1-[2-Amino-6-(2,4,6-trimethyl-phenyl)-pyrido[2,3-d]pyrimidin-7-yl]-3-tert-butyl-urea]	1730	340	–	–	–	–	28.9
Cc1cc(C)c(C)c(-c2cc3cnc(N)nc3nc2N)c1C [Example 98, 6-(2,3,5,6-Tetramethyl-phenyl)-pyrido[2,3-d]pyrimidine-2,7-diamine]	–	1800	–	0.5	34.3	–	–
